From patent US9476099B2 (TRUSTEES OF DARTMOUTH COLLEGE, priority 2012, dated 2016)

Tested on: gene promoters in NT2/D1-R1 control and DNMT3B knockdown cells
Assay: Genome-wide promoter methylation analysis, HumanMethylation27 BeadChip (Table 15)
Assay type: cell-based, human
Settings: sh-ctrl + 5aza
Protocol: DNA methylation analysis was performed in samples in triplicate using the […] […] assay with the HumanMethylation27 BeadChip ([…]) and the BeadChip was scanned on the BeadArray Reader ([…]), according to the manufacturer's instructions. Raw data was normalized and analyzed with Genome Studio software ([…]). The HumanMethylation27 BeadChip assays 27,578 CpGs covering more than 14,000 genes, mostly from promoter regions. […] Hierarchical clustering was performed as stated above. HumanMethylation27 BeadChip data and gene expression microarray data were submitted to NCBI GEO.

## Nc1ncn([C@H]2C[C@H](O)[C@@H](CO)O2)c(=O)n1 [5aza]
  ABCC1 cg20158248 promoter methylation Mean: 0.480
  ACP1 cg27226618 promoter methylation Mean: 0.786
  ADCY4 cg16761581 promoter methylation Mean: 0.609
  ADRA2A cg26926521 promoter methylation Mean: 0.939
  ALDH1A3 cg19224278 promoter methylation Mean: 0.443
  ALKBH4 cg07404418 promoter methylation Mean: 0.458
  ALX4 cg04549333 promoter methylation Mean: 1.136
  ALX4 cg04970352 promoter methylation Mean: 0.964
  ALX4 cg19358442 promoter methylation Mean: 1.126
  ANKRD13C cg19342782 promoter methylation Mean: 0.544
  ANKRD45 cg15883716 promoter methylation Mean: 1.017
  APC cg16970232 promoter methylation Mean: 0.424
  BLOC1S2 cg26610808 promoter methylation Mean: 0.575
  BTBD5 cg00660989 promoter methylation Mean: 0.347
  BTNL8 cg24024214 promoter methylation Mean: 1.068
  C1QL1 cg13818573 promoter methylation Mean: 0.460
  C1orf188 cg15731815 promoter methylation Mean: 0.541
  C10orf107 cg16063112 promoter methylation Mean: 0.354
  C14orf173 cg24404909 promoter methylation Mean: 0.379
  C16orf60 cg17858663 promoter methylation Mean: 0.245
  C19orf4 cg07379574 promoter methylation Mean: 1.078
  C19orf22 cg18022193 promoter methylation Mean: 0.288
  CAMK1G cg27337148 promoter methylation Mean: 1.021
  CD58 cg21039631 promoter methylation Mean: 0.251
  CDKN2B cg04675937 promoter methylation Mean: 0.256
  CDKN2B cg08390209 promoter methylation Mean: 0.280
  CDX1 cg15452204 promoter methylation Mean: 0.595
  CEACAM4 cg10237469 promoter methylation Mean: 0.718
  CEACAM7 cg19623751 promoter methylation Mean: 0.886
  CGI-38 cg13067215 promoter methylation Mean: 0.513
  CHD5 cg00282347 promoter methylation Mean: 1.005
  CHMP2A cg14042128 promoter methylation Mean: 0.541
  COL11A1 cg12884406 promoter methylation Mean: 0.415
  COPS7B cg05422352 promoter methylation Mean: 0.579
  CRSP7 cg24459023 promoter methylation Mean: 0.301
  CSPG3 cg06952310 promoter methylation Mean: 0.480
  CSTF2T cg06712026 promoter methylation Mean: 0.431
  CTAGE1 cg02847216 promoter methylation Mean: 0.955
  CUL3 cg09509863 promoter methylation Mean: 0.411
  CYP4F12 cg25813714 promoter methylation Mean: 0.959
  DCTD cg14892066 promoter methylation Mean: 0.243
  DDEF2 cg22190705 promoter methylation Mean: 0.329
  DEFB118 cg03014957 promoter methylation Mean: 0.690
  DNASE2 cg07955356 promoter methylation Mean: 0.275
  DPH1 cg11516377 promoter methylation Mean: 0.465
  DYRK1B cg18851831 promoter methylation Mean: 1.262
  EIF2B3 cg16604218 promoter methylation Mean: 0.543
  ELSPBP1 cg19404979 promoter methylation Mean: 0.655
  ENOSF1 cg16112050 promoter methylation Mean: 1.028
  EPN3 cg24006361 promoter methylation Mean: 1.019
  EREG cg19308222 promoter methylation Mean: 0.356
  FAM111B cg13864937 promoter methylation Mean: 0.508
  FLJ10726 cg14145762 promoter methylation Mean: 0.436
  FLJ11200 cg09001953 promoter methylation Mean: 0.482
  FLJ23514 cg16404106 promoter methylation Mean: 0.628
  FLRT3 cg23127998 promoter methylation Mean: 0.397
  FLT3LG cg01667384 promoter methylation Mean: 0.249
  FXYD7 cg22392666 promoter methylation Mean: 1.028
  G10 cg02798801 promoter methylation Mean: 0.608
  GABRB2 cg16509658 promoter methylation Mean: 0.219
  GALNT4 cg16606638 promoter methylation Mean: 0.265
  GAS8 cg03634997 promoter methylation Mean: 1.082
  GBX2 cg23095584 promoter methylation Mean: 0.468
  GNAS cg27661264 promoter methylation Mean: 0.565
  GRB10 cg26163537 promoter methylation Mean: 0.312
  GUP1 cg24938727 promoter methylation Mean: 0.640
  HACE1 cg23047681 promoter methylation Mean: 0.204
  HGF cg06745740 promoter methylation Mean: 0.594
  HNRNPG-T cg22062068 promoter methylation Mean: 0.977
  HOXB4 cg25145670 promoter methylation Mean: 0.488
  HRASLS cg08376864 promoter methylation Mean: 0.853
  HYPK cg00480356 promoter methylation Mean: 0.818
  ICAM1 cg08607082 promoter methylation Mean: 0.244
  IFI16 cg07463059 promoter methylation Mean: 0.582
  IFI44 cg07107453 promoter methylation Mean: 0.513
  IFNA2 cg13235447 promoter methylation Mean: 0.697
  IGF2AS cg20792294 promoter methylation Mean: 0.323
  IGFBP5 cg19008649 promoter methylation Mean: 0.370
  IGSF9 cg19111262 promoter methylation Mean: 0.826
  IHH cg17178336 promoter methylation Mean: 0.709
  IL2RG cg01361446 promoter methylation Mean: 1.103
  IL18 cg11304234 promoter methylation Mean: 0.646
  INPP5B cg10784030 promoter methylation Mean: 0.366
  ITGB3BP cg18464559 promoter methylation Mean: 0.168
  KA21 cg23776012 promoter methylation Mean: 0.641
  KCNA3 cg03483626 promoter methylation Mean: 0.326
  KCNAB3 cg14918082 promoter methylation Mean: 0.852
  KCNB2 cg11754206 promoter methylation Mean: 0.551
  KCNK10 cg17671157 promoter methylation Mean: 1.059
  KLK7 cg19953406 promoter methylation Mean: 0.983
  LAMB1 cg10064162 promoter methylation Mean: 0.426
  LDHD cg24429836 promoter methylation Mean: 0.760
  LIG4 cg08216792 promoter methylation Mean: 0.356
  LYNX1 cg24046110 promoter methylation Mean: 0.430
  MC3R cg19226099 promoter methylation Mean: 1.057
  MGC26856 cg07684809 promoter methylation Mean: 0.489
  MLNR cg02620013 promoter methylation Mean: 0.755
  MPHOSPH6 cg16119274 promoter methylation Mean: 0.444
  MSX1 cg03199651 promoter methylation Mean: 0.288
  MYOD1 cg24322623 promoter methylation Mean: 0.931
  NCKIPSD cg04244987 promoter methylation Mean: 0.392
  NDP cg11614809 promoter methylation Mean: 0.756
  NEFH cg16042149 promoter methylation Mean: 1.041
  NEIL2 cg14329976 promoter methylation Mean: 0.360
  NME5 cg13707560 promoter methylation Mean: 1.225
  NME5 cg25507001 promoter methylation Mean: 0.889
  NOC3L cg07270175 promoter methylation Mean: 0.614
  NOX4 cg17063929 promoter methylation Mean: 0.483
  NPAS1 cg09628601 promoter methylation Mean: 0.553
  NRXN1 cg10917619 promoter methylation Mean: 0.867
  OR1N1 cg14598387 promoter methylation Mean: 0.606
  OR10J1 cg15700197 promoter methylation Mean: 0.679
  PACS1 cg01663295 promoter methylation Mean: 0.625
  PCDHB13 cg14592099 promoter methylation Mean: 0.747
  PCDHB13 cg24435562 promoter methylation Mean: 0.441
  PCDHGA12 cg11647681 promoter methylation Mean: 0.936
  PCGF5 cg17001035 promoter methylation Mean: 0.893
  PEPD cg06546607 promoter methylation Mean: 0.266
  PEX5L cg02430692 promoter methylation Mean: 0.511
  PI3 cg02442161 promoter methylation Mean: 0.857
  PIGL cg05310071 promoter methylation Mean: 0.351
  POU3F3 cg20291049 promoter methylation Mean: 0.387
  POU4F2 cg24199834 promoter methylation Mean: 0.287
  PTCH2 cg15329642 promoter methylation Mean: 0.789
  PTPN5 cg17233601 promoter methylation Mean: 0.801
  RASGEF1A cg07871503 promoter methylation Mean: 0.945
  RBPSUHL cg21835643 promoter methylation Mean: 1.018
  REM1 cg12153542 promoter methylation Mean: 0.664
  REM1 cg26299767 promoter methylation Mean: 0.727
  RLN3R1 cg12238343 promoter methylation Mean: 0.732
  RPL39L cg07441272 promoter methylation Mean: 0.691
  RRM2B cg07125123 promoter methylation Mean: 0.370
  RYR1 cg05471297 promoter methylation Mean: 0.480
  S100A12 cg02813121 promoter methylation Mean: 0.941
  SCUBE2 cg01081263 promoter methylation Mean: 0.693
  SCUBE2 cg19237879 promoter methylation Mean: 0.670
  SEMA3E cg08274234 promoter methylation Mean: 0.306
  SEMA6C cg01958916 promoter methylation Mean: 0.267
  SEPN1 cg21187265 promoter methylation Mean: 0.387
